Measured values published in patent US20110153302A1, “IDENTIFICATION OF DRUG EFFECTS ON SIGNALING PATHWAYS USING INTEGER LINEAR PROGRAMMING” (Massachusetts Institute of Technology, priority 2009, published 2011).
“Also recorded” adds a separate entry of the source.

How the values were obtained:
[1] = tested on: HepG2 cells; test: Bead-based multiplexed (Luminex xMAP) measurement of 13 key phosphorylation events in cells treated with drugs and ligands; assay type: cell-based
Protocol: HepG2 cells were purchased from ATCC (Manassas, Va.), and seeded on 96-well plates coated with collagen type I-coated (BD Biosciences, Franklin Lakes, N.J.) at 30,000 cells/well in DME medium containing 10% Fetal Bovine Serum (FBS). The following morning, cells were starved for 4 hours and treated with inhibitors and/or drugs. Kinase inhibitors were used at concentrations sufficient to inhibit at least 95% the phosphorylation of the nominal target as determined by dose-response assays (presented in [17]). […] was chosen as the nominal target for Lapatinib, Erlotinib, and Gefitinib. The following saturated concentrations were used: p38 (PHA818637, 20 nM), MEK (PD325901, 100 nM) and cMET (JNJ38877605, 1 μM), PI3K (PI-103, 10 μM), Lapatinib at 3 uM [47], Erlotinib at 1 uM [47], Gefitinib at 3 uM [47], and Sorafenib at 3 uM (based on its inhibitory activity on ERK1/2 phosphorylation). Following incubation for 45 minutes with inhibitors and/or drugs cells were treated with saturated levels of 5 ligands: Tumor Necrosis Factor alpha (TNFα) at 100 ng/ml, Interleukin 1 alpha (IL1α) at 10 ng/ml, Insulin (INS) at 2 uM, Transforming Growth Factor (TGFα) at 100 ng/ml, and Hepatocytes Growth Factor (HGF) at 100 ng/ml. Each ligand was added alone or in pairs and cell lysates were collected at 0, 5, and 25 minutes following the cytokine stimulation. The 5 and 25 minutes lysates were mixed together in 1:1 ratio and the mixed lysate was measured as an indicator of the “average early signaling response”. The 5 and 25 minute time points were identified in a preliminary experiment as the optimal time points that maximally captured early phosphorylation activities.
(§1) From each lysate we measured 13 phosphorylation activities that we considered “key phosphorylation events” using a Luminex 200 system (Luminex Corp, Austin, Tex.). The 13-plex phospho-protein bead set from Bio-Rad was used to assay p70S6K (Thr421/Ser424), CREB (Ser133), p38 (Thr180/Tyr182), MEK1 (Ser217/Ser221), JNK (Thr183/Tyr185), HSP27 (Ser78), ERK1/2 (Thr202/Tyr204, Thr185/Tyr187), c-JUN (Ser63), IRS-1 (Ser636/Ser639), IκB-α (Ser32/Ser36), Histone H3 (Ser10), Akt (Ser473), and IR-β (Tyr1146). Data were normalized and plotted using with DataRail. For the construction of the dose response curve in FIG. 3i, HepG2 were starved for 4 hours and then incubated with Gefitinib (from 20 uM down to 27 nM-3 fold dilution) for 45 minutes followed by incubation with IL1α at 10 ng/ml final concentration for 30 minutes. Duplicate lysates were analyzed using the c-JUN (Ser63) beads in the Luminex 200 system.
High-throughput bead-based ELISA-type experiments using xMAP technology (Luminex, Tex., USA) are performed as briefly described in the Materials and Methods section and in [17]. We create two datasets: one for the construction of cell-type specific topology and another for the identification of the mechanisms of drug actions. […] For the purpose of this paper, we refer to “inhibitors” as the compounds for which we know the target and we use them in a concentration capable to block ˜95% of the downstream protein. Conversely, we refer to “drugs” as the compounds for which we assume no a-priori knowledge of their target. For each combination of cytokine and drug/inhibitor we collect cell lysates at 5 and 25 minutes. The two time points are pooled together in 1:1 ratio and the mixed lysates are used as an indicator of the “average early signaling response”. For each treatment we measure 13 protein phosphorylations that we consider “key protein activities” (raw data in FIG. 4). The key phosphorylation signals (listed in Materials and Methods) are chosen based on the availability of the reagents and quality controls performed at the early phases of the experimental setup. […]

[2] = tested on: JNK1/2 kinases; settings: kinase profiles, ref [32]; cited from earlier work
[3] = tested on: HepG2 specific topology; test: Drug-induced topology alterations: ILP fit of the HepG2 specific topology to drug-induced phosphoprotein data; settings: for Drug effect on the JNK→c-JUN branch / Drug effect on downstream reactions of the TGFα branch (TGFα→GRB2→SOS→RAS→PI3K and RAS→RAF1→MEK1/2→ERK1/2): reactions removed from HepG2 topology by ILP, Gefitinib 3 uM; for Effect on c-Jun signaling: summary statement in the personalized medicine section
Source text: Here, we describe how the Boolean model described in [18] can be reformulated as an ILP. Note that such a transformation was recently performed for a different problem, namely the satisfiability, by. A pathway is defined as a set of reactions i=1, . . . , nr and species j=1, . . . , ns. Each reaction has three corresponding index sets, namely the index set of signaling molecules Ri, inhibitors Ii, and “products” Pi (“product” can also correspond to the phosphorylation level of the protein). These sets are all subsets of the species index set (Ri,Ii,Pi⊂{1, . . . , ns}). Typically, these subsets have very small cardinality (few species), e.g., |Ri|=0,1,2;|Ii|=0,1;|Pi|=1,2;|Ri|+|Ii|=1,2. A reaction takes place if and only if all reagents and no inhibitors are present. If a reaction takes place, all products are formed. Note that reactions without products as well as reactions with neither reagents nor inhibitors will be excluded here.
While typically the set of species is known, the set of reactions is not known. Rather, only a superset of potential reactions is postulated. The goal of the proposed formulation is to find an optimal (in some sense) set of reactions out of such a superset. To that extent binary variables yi are introduced, indicating if a reaction is possible or not (yi=0 connection not present, yi=1 connection present).
A set of experiments is performed, indexed by the superscript k=1, . . . , ne. In each experiment a subset of species is introduced to the system and another subset is excluded from the system. These are summarized by the index sets M^k,1 and M^k,0 respectively (two for each experiment). In the proposed formulation, constants are introduced for all such species, respectively xj^k=1 and xj^k=0. […] In the experiments a third subset of the species is measured (index set M^k,2) and for the remaining species no information is available. In the proposed formulation for each of the experiments and each such species a binary decision variable xj^kε{0,1} is introduced indicating if the species j is present (xj^k=1) or not (xj^k=0) in the experiment k according to the model predictions. […] This has some computational advantages.
In the present study, our ILP formulation was utilized in two different circumstances. For the creation of the cell-type specific pathway using combinations of inhibitors and stimuli our ILP formulation included 27887 constraints and 9732 variables. For each drug case, where the reduced and optimized pathway was utilized, we had 2477 constraints and 947 variables.
For the identification of the drug effects we make use of the second dataset in HepG2s where drugs are applied together with the same set of ligands. In this case, the ILP formulation is being used with the HepG2 specific topology (topology obtained from the previous step) and not the generic map.

[4] = tested on: c-JUN (Ser63); test: Gefitinib dose response of c-JUN (Ser63) signal in HepG2 after IL1α (FIG. 3i); assay type: cell-based; settings: Gefitinib 20 uM down to 27 nM, 45 min, IL1α 10 ng/ml, 30 min, linear fit
Source text: as §1

[5] = biological target: p38α (Homo sapiens, UniProt Q16539); settings: refs [32],[45]; cited from earlier work
[6] = tested on: RAF/MEK/ERK pathway; settings: human tumor cell lines, ref [33]; cited from earlier work

p38α, sequence (Q16539 whole entry): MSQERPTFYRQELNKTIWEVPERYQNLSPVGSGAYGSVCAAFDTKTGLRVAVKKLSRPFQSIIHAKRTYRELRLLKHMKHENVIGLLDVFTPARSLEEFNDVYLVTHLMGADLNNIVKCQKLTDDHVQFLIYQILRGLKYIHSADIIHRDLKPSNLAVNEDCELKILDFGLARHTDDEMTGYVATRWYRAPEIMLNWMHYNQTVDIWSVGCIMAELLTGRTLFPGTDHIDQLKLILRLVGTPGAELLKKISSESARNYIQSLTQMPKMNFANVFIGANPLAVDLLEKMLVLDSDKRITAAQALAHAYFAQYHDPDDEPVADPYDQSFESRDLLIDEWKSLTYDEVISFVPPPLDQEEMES

| Compound | IκB-α signals upon IL1α and TNFα stimuli ([1]; Erlotinib 1 uM, FIG. 4) | Affinity for the directly upstream JNK1/2 kinases [2] | Drug effect on the TRAF6→MAP3k7 reaction ([3]; HepG2 topology, ILP, Erlotinib 1 uM) | Drug effect on the JNK→c-JUN branch ([3]; Erlotinib 1 uM, Sorafenib 3 uM) | Drug effect on downstream reactions of the TGFα branch (TGFα→GRB2→SOS→RAS→PI3K and RAS→RAF1→MEK1/2→ERK1/2) ([3]; Lapatinib 3 uM, Erlotinib 1 uM) | Effect on c-Jun signaling [3] | IL1α- and (IL1α+TGFα)-induced cJUN activity ([1]; Gefitinib 3 uM, IL1α 10 ng/ml, FIG. 3f) | Activation of cJUN signal induced by the IL1α stimuli, dose response [4] | TGFα induced MEK1/2, ERK1/2, and AKT phosphosignals ([1]; Lapatinib 3 uM, 45 min before TGFα 100 ng/ml, early response (5 and 25 min), FIG. 3e) | Activation of AKT by the HGF and INS path ([1]; Lapatinib 3 uM, FIG. 3e) | Drug effect on the PI3K→...→AKT branch ([3]; HepG2 topology, ILP, Lapatinib 3 uM) | Target affinity to p38α [5] | Inhibition of activation of the RAF/MEK/ERK pathway [6] | HSP27 phosphorylation upon IL1α treatment ([1]; Sorafenib 3 uM, FIG. 3h) | MEK1 phosphorylation ([1]; Sorafenib 3 uM, FIG. 3h) | Drug effect on the p38 path ([3]; HepG2 topology, ILP, Sorafenib 3 uM) | Drug effect on the RAF→ERK1/2 reaction ([3]; HepG2 topology, network optimization, Sorafenib 3 uM) |
| --- | --- | --- | --- | --- | --- | --- | --- | --- | --- | --- | --- | --- | --- | --- | --- | --- | --- |
| C#Cc1cccc(Nc2ncnc3cc(OCCOC)c(OCCOC)cc23)c1 [Erlotinib] | inhibited in an IL1α-dependent but TNFα-independent manner | no medium or high affinity | shows an effect in the TRAF6→MAP3k7 reaction | has the same effects as Gefitinib; also recorded: removal of the JNK→cJUN reaction | has the same effects as Gefitinib | do not affect c-Jun signaling | – | – | – | – | – | – | – | – | – | – | – |
| COc1cc2ncnc(Nc3ccc(F)c(Cl)c3)c2cc1OCCCN1CCOCC1 [Gefitinib] | – | no medium or high affinity | – | removal of the JNK→c-JUN branch; also recorded: removal of the JNK→cJUN reaction | alters the topology in a very similar pattern as Lapatinib | affects c-Jun signaling as well as EGFR signaling | potent inhibition; also recorded: significant reduction of the cJUN activity; also recorded: previously unknown inhibition of cJUN in the IL1α pathway; also recorded: inhibits signaling downstream the Interleukin-1alpha (IL1α) pathway | can reduce the activation of cJUN signal; also recorded: does not follow a typical dose-response curve; also recorded: reduces cJUN activation | – | – | – | – | – | – | – | – | – |
| CS(=O)(=O)CCNCc1ccc(-c2ccc3ncnc(Nc4ccc(OCc5cccc(F)c5)c(Cl)c4)c3c2)o1 [Lapatinib] | – | – | – | – | complete removal of the downstream reactions of the TGFα branch | do not affect c-Jun signaling | – | – | blocks | cannot be blocked | not removed | – | – | – | – | – | – |
| CNC(=O)c1cc(Oc2ccc(NC(=O)Nc3ccc(Cl)c(C(F)(F)F)c3)cc2)ccn1 [Sorafenib] | – | no medium or high affinity | – | blocks the JNK→c-JUN branch; also recorded: removal of the JNK→cJUN reaction | – | – | – | – | – | – | – | target affinity | does not inhibit activation of the RAF/MEK/ERK pathway in all human tumor cell lines | complete HSP27 inhibition | reduces but does not block | affects the p38 path; also recorded: inhibition of the pathway downstream of p38 | does not remove the RAF→ERK1/2 reaction |
